Experimental findings from patent US20220220106A1, “QUINOLINE COMPOUNDS AND PHARMACEUTICAL COMPOSITIONS AND USES THEREOF” (Academy of Military Medical Sciences, priority 2019, published 2022) are described below.

Molecules are shown by their SMILES. Read-outs that look alike come from different tables or passages of the source.

Usually Tmax stands for the time from dosing to the highest level. For orientation: AUC means concentration integrated over time. Broadly, the Cmax is the maximum level reached in the sampled fluid or tissue.

The nature of this data set: In vivo drug metabolism (pharmacokinetics) in mice, iv and po. The note with it: for apparent volume of distribution (Vss), in words / clearance rate (CL), in words / area under curve (AUC) through injection administration route, in words: iv; for Tmax / AUC / clearance / half-life / Vd / C0 / Cmax: male, plasma; for Tmax: C57, mouse, 10 mg/kg; for AUC / clearance / half-life / Vd / C0 / Cmax: mouse; for clearance: read-out: CL iv; for Vd: read-out: Vss iv; for F po: oral bioavailability, po 10 mg/kg vs iv 1 mg/kg. Also on record: species or system C57 male mice. The protocol:
Experimental animals: C57 male mice (purchased from Beijing Vital River Laboratory Animal Technology Co., Ltd.), bred for 6-8 weeks and weighing 20-30 g, 3 mice in each group of iv/po groups, a total of 6 groups.
Preparation of Sample Solutions:
(1) Preparation of sample solution (1 mg/kg, 5 mL/kg) for injection (iv): 1 mg of the sample to be tested was dissolved in 0.5 mL DMSO, mixed by a vortex mixer, and treated ultrasonically to obtain a stock solution (2 mg/mL); 0.10 mL of the stock solution (2 mg/mL) was added to a vial, then 0.4 mL of PEG400 and 0.5 mL of water were added, and mixed by a vortex shaker, treated ultrasonically to obtain a sample solution with a concentration of 0.2 mg/mL.
(2) Preparation of sample solution (10 mg/kg, 10 mL/kg) for oral administration (po): 1 mg of the sample to be tested was dissolved in 1 mL of “0.5% CMC/0.1% Tween-80 aqueous solution”, mixed by a vortex mixer, and treated ultrasonically to obtain a suspension of the sample to be tested with a concentration of 1 mg/mL.
Liquid Chromatography Method:
(1) Chromatographic column: Waters XSELECT CSH C18, 2.5 μm 2.1×50 mm chromatographic column.
(2) Mobile phase: Phase A: 5% acetonitrile in aqueous solution (0.1% formic acid); Phase B: 95% acetonitrile in aqueous solution (0.1% formic acid).
(3) Flow rate: 0.6 mL/min.
(4) Sampling volume: 20 μL.
For each compound, po group and iv group were set for administration. All experimental animals were fasted overnight before administration, and all administration was performed at room temperature.
Sampling time: for iv group, sampling was performed at 0.083, 0.25, 0.5, 1, 2, 4, 8 and 24 hours after injection administration (iv); for po group, sample was performed at 0.25, 0.5, 1, 2, 4, 8 and 24 hours after oral administration (po).
(1) At each time point, about 0.03 mL of blood was collected. The blood of each sample was transferred to a plastic microcentrifuge tube containing heparin sodium anticoagulant, mixed well with the anticoagulant, and then cooled on ice and centrifuged.
(2) The blood sample was centrifuged at 4000 rpm for 5 minutes at 4° C. to obtain plasma.
(3) The samples was stored in a refrigerator at −75±15° C. for later test.
Analysis and Identification:
The mixed solution of acetonitrile and water (1:1) was used to dilute the stock solution to prepare a series of working solutions.
3 μL of working solution (5, 10, 20, 50, 100, 500, 1000, 5000, 10000 ng/mL) was added to 30 μL of C57 mouse blank plasma to obtain a standard solution with a concentration of 0.5-1000 ng/mL (0.5, 1, 2, 5, 10, 50, 100, 500, 1000 ng/mL), in total of 33 μL. Four quality control samples of 1 ng/mL, 2 ng/mL, 50 ng/mL and 800 ng/mL were used to calibrate the standard curve.
(2) The quality control samples were prepared on the day of analysis, and the method was the same as the standard solution.
(3) 200 μL of acetonitrile containing internal standard solution was added to 33 μL of standard samples, 33 μL of quality control samples and 33 μL of unknown sample (30 μL of plasma and 3 μL of blank solution) to precipitate protein, respectively. The samples were mixed by a vortex mixer for 30 seconds and mixed well. The precipitated samples were centrifuged for 15 minutes at 4° C. and 4000 rpm.
(4) The supernatant was pipetted quantitatively and diluted by 3 times with water, then the diluted supernatant was loaded and quantitatively analyzed by liquid chromatography-mass spectrometry technology.
(5) Detection data were obtained, and pharmacokinetic parameters such as T1/2, Cmax, AUC, AUC, CL, Vss, F were calculated.

[1] abbreviates: po, po 10 mg/kg, read-out: Tmax po.
[2] abbreviates: po, po, read-out: peak time Tmax.
Setting [3] is: iv 1 mg/kg, C57 mice, read-out: AUC iv.
The mark [4] stands for this setting: iv 1 mg/kg, C57 mice, read-out: T1/2 iv (converted).
[5] abbreviates: po 10 mg/kg, C57 mice, read-out: AUC po.
The mark [6] stands for this setting: po 10 mg/kg, C57 mice, read-out: T1/2 po (converted).

As to `CCC(=O)Nc1ccc(-c2ccc3ncc4ccc(=O)n(-c5cccc(C(F)(F)F)c5)c4c3c2)cn1` [HTL-6-45, 9-[3-(6-propionylamino)pyridyl]-2-oxo-1-[3-(trifluoromethyl)phenyl]-1,2-dihydrobenzo[h][1,6]naphthyridine], where the note is “C57 mice”, the “apparent volume of distribution (Vss), in words” value (“apparent volume of distribution” for short) is “slightly higher”; the “clearance rate (CL), in words” value is reported as “relatively higher clearance rate”; the F po is recorded as 3.89%. Moreover, the Tmax under setting [1] was determined as 15 min. Under setting [2], the Tmax was determined as 15 min. Further, under setting [3], the AUC worked out at 95 ng·h/mL. Where the note is “iv 1 mg/kg, C57 mice”, the clearance was 176 mL/min/kg, the Vd amounted to 3.25 L/kg and the C0 amounted to 398 ng/mL. In addition, the half-life under setting [4] is 19.4 min. In addition, the AUC under setting [5] was 35.4 ng·h/mL. In addition, the half-life under setting [6] was 50.4 min. In addition, where the note is “po 10 mg/kg, C57 mice”, the highest level (Cmax) was 42.9 ng/mL.
For the compound `O=c1ccc2cnc3ccc(-c4cccnc4F)cc3c2n1-c1cccc(C(F)(F)F)c1` [HTL-6-48, 9-[3-(2-fluoro)pyridyl]-2-oxo-1-[3-(trifluoromethyl)phenyl]-1,2-dihydrobenzo [h][1,6]naphthyridine], for the setting “C57 mice”, the “highest blood concentration C0/Cmax, in words” value is “relatively high”; the “apparent volume of distribution” value is given as “lower”; the “area under curve (AUC) through injection administration route, in words” value (from here on “area under curve”) is listed as “relatively high”. Besides, the time to peak (Tmax) under setting [1] is 15 min. Moreover, under setting [2], the Tmax worked out at 15 min. Further, under setting [3], the AUC was 651 ng·h/mL. Under “iv 1 mg/kg, C57 mice”, the clearance was found to be 25.6 mL/min/kg, the Vd is 1.59 L/kg and the C0 turned out to be 651 ng/mL. In addition, under setting [4], the half-life is 50.4 min. Further, the AUC under setting [5] is 1330 ng·h/mL. The half-life under setting [6] is 59.4 min. Also, the concentration (po 10 mg/kg, C57 mice) peaked (Cmax) at 1290 ng/mL.
Turning to `O=c1ccc2cnc3ccc(-c4ccc(F)nc4)cc3c2n1-c1cccc(C(F)(F)F)c1` [HTL-7-01, 9-[3-(6-fluoro)pyridyl]-2-oxo-1-[3-(trifluoromethyl)phenyl]-1,2-dihydrobenzo[h][1,6]naphthyridine], where the note is “C57 mice”, the “apparent volume of distribution” value is reported as “lower”; the “area under curve” value is “relatively high”; the F po amounted to 12.2%. Also, the Tmax under setting [1] worked out at 30 min. The Tmax under setting [2] is more than 30 min. Further, the AUC under setting [3] came to 592 ng·h/mL. Moreover, where the note is “iv 1 mg/kg, C57 mice”, the clearance is 27.8 mL/min/kg, the Vd is 2.29 L/kg and the C0 is 574 ng/mL. In addition, the half-life under setting [4] was 63 min. Besides, the AUC under setting [5] is 699 ng·h/mL. Further, the half-life under setting [6] was 121 min. In addition, the maximum concentration (Cmax) (po 10 mg/kg, C57 mice) is 298 ng/mL. For the same compound, the “AUC through oral administration, in words” value (po, C57 mice) is listed as “lower”.
In the case of `COc1ccc(-c2ccc3ncc4ccc(=O)n(-c5cccc(C(F)(F)F)c5)c4c3c2)cn1` [HTL-7-03, 9-[3-(6-methoxy)pyridyl]-2-oxo-1-[3-(trifluoromethyl)phenyl]-1,2-dihydrobenzo[h][1,6]naphthyridine], where the note is “C57 mice”, the “half-life T1/2, in words” value is listed as “relatively longer half-life”; the “apparent volume of distribution” value is on record as “slightly higher”; the “area under curve” value was “relatively high”. Under setting [1], the Tmax is 40 min. Under setting [2], the Tmax is more than 30 min. The AUC under setting [3] turned out to be 668 ng·h/mL. For the setting “iv 1 mg/kg, C57 mice”, the clearance worked out at 24.1 mL/min/kg, the Vd came out at 3.24 L/kg and the C0 is 596 ng/mL. Besides, under setting [4], the half-life was 110 min. In addition, under setting [5], the AUC is 1640 ng·h/mL. Further, under setting [6], the half-life is 74.4 min. Where the note is “po 10 mg/kg, C57 mice”, this compound displayed a Cmax of 565 ng/mL.
For the compound `CN1CCN(c2ccc(-c3ccc4ncc5ccc(=O)n(-c6cccc(C(F)(F)F)c6)c5c4c3)cn2)CC1` [HTL-7-17, 9-{3-[6-(4-methylpiperazin-1-yl)pyridyl]}-2-oxo-1-[3-(trifluoromethyl)phenyl]-1,2-dihydrobenzo[h][1,6]naphthyridine], for the setting “C57 mice”, the “apparent volume of distribution” value is “slightly higher” and the “clearance rate (CL), in words” value is “relatively higher clearance rate”. Further, under setting [1], the Tmax stood at 20 min. Also, the time of peak concentration (Tmax) under setting [2] was found to be 19.8 min. In addition, the AUC under setting [3] came to 168 ng·h/mL. Besides, under “iv 1 mg/kg, C57 mice”, the clearance came out at 99 mL/min/kg, the Vd was determined as 3.59 L/kg and the C0 turned out to be 364 ng/mL. In addition, the half-life under setting [4] is 43.1 min. Further, the AUC under setting [5] is 357 ng·h/mL. Further, the half-life under setting [6] is 94.8 min. The Cmax (po 10 mg/kg, C57 mice) came to 144 ng/mL.
